We go through two molecules from article PMC6948154 (Cell reports, 2019).

Assay [1] deals with Hedgehog acyltransferase (Hhat) (Homo sapiens, UniProt Q5VTY9, Y351A). Description: in vitro Shh peptide palmitoylation by purified Y351A Hhat. The class given is biochemical.
Assay [2] deals with Hedgehog acyltransferase (Hhat) (Homo sapiens, UniProt Q5VTY9). Put plainly: NBD-palmitoyl-CoA uptake into liposomes with purified Hhat. The class given is biochemical.
Sequence of Hedgehog acyltransferase (Hhat) (Homo sapiens, UniProt Q5VTY9) (Q5VTY9 whole entry): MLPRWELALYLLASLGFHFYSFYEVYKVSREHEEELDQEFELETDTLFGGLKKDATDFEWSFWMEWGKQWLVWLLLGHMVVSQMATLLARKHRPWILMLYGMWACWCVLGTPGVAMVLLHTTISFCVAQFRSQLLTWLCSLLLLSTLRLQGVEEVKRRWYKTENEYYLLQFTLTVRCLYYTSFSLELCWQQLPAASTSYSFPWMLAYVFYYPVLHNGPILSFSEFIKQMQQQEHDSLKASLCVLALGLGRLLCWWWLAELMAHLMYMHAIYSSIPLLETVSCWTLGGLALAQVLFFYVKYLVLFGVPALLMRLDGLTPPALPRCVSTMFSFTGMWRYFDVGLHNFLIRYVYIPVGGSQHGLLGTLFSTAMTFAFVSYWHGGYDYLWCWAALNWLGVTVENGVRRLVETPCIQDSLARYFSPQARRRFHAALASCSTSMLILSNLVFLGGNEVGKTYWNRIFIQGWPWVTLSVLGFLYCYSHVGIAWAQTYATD

Sequence of Hedgehog acyltransferase (Hhat) (Homo sapiens, UniProt Q5VTY9, Y351A) (Q5VTY9 whole entry Y351A): as the sequence (Q5VTY9 whole entry) above, with Y351A counted along it

For the molecule `CC(C)(COP(=O)(O)OP(=O)(O)OC[C@H]1O[C@@H](n2cnc3c(N)ncnc32)[C@H](O)[C@@H]1OP(=O)(O)O)[C@@H](O)C(=O)NCCC(=O)NCCSC(=O)CCCCCCCCCCCCCCCI` [[125I] IodoPalmitoyl-CoA], in assay [1], the “in vitro Shh peptide palmitoylation by purified Y351A Hhat” value is “Y351A retained near-WT levels of Shh palmitoylation activity when assayed in vitro using detergent-solubilized membranes and as a purified enzyme”.

The IC50 is the concentration at which inhibition is half-maximal. The low end stands for greater potency in that assay, the high end for weaker potency in that assay. With TDI-3410, the IC50 in assay [2] came to 2450 nM.
